ChEMBL document CHEMBL1201861, “Genomics of Drug Sensitity in Cancer screening data, Wellcome Trust Sanger Institute”

How the values were obtained:
Assay in all cases: cells
Format in all cases: functional, cell-based, Homo sapiens
Calu-6 = details: Homo sapiens, Calu-6
Description: SANGER: Inhibition of human Calu-6 cell growth in a cell viability assay.

D-263MG = details: Homo sapiens, D-263MG
Description: SANGER: Inhibition of human D-263MG cell growth in a cell viability assay.

ES3 = details: Homo sapiens, ES3
Description: SANGER: Inhibition of human ES3 cell growth in a cell viability assay.

ES5 = details: Homo sapiens, ES5
Description: SANGER: Inhibition of human ES5 cell growth in a cell viability assay.

ES8 = details: Homo sapiens, ES8
Description: SANGER: Inhibition of human ES8 cell growth in a cell viability assay.

EW-1 = details: Homo sapiens, EW-1
Description: SANGER: Inhibition of human EW-1 cell growth in a cell viability assay.

HCE-T = details: Homo sapiens, HCE-T
Description: SANGER: Inhibition of human HCE-T cell growth in a cell viability assay.

HD-MY-Z = details: Homo sapiens, HD-MY-Z
Description: SANGER: Inhibition of human HD-MY-Z cell growth in a cell viability assay.

HH = details: Homo sapiens, HH
Description: SANGER: Inhibition of human HH cell growth in a cell viability assay.

JVM-2 = details: Homo sapiens, JVM-2
Description: SANGER: Inhibition of human JVM-2 cell growth in a cell viability assay.

KARPAS-299 = details: Homo sapiens, KARPAS-299
Description: SANGER: Inhibition of human KARPAS-299 cell growth in a cell viability assay.

KMOE-2 = details: Homo sapiens, KMOE-2
Description: SANGER: Inhibition of human KMOE-2 cell growth in a cell viability assay.

KNS-81-FD = details: Homo sapiens, KNS-81-FD
Description: SANGER: Inhibition of human KNS-81-FD cell growth in a cell viability assay.

KP-N-YS = details: Homo sapiens, KP-N-YS
Description: SANGER: Inhibition of human KP-N-YS cell growth in a cell viability assay.

KURAMOCHI = details: Homo sapiens, KURAMOCHI
Description: SANGER: Inhibition of human KURAMOCHI cell growth in a cell viability assay.

LAMA-84 = details: Homo sapiens, LAMA-84
Description: SANGER: Inhibition of human LAMA-84 cell growth in a cell viability assay.

LB2518-MEL = details: Homo sapiens, LB2518-MEL
Description: SANGER: Inhibition of human LB2518-MEL cell growth in a cell viability assay.

LS-1034 = details: Homo sapiens, LS-1034
Description: SANGER: Inhibition of human LS-1034 cell growth in a cell viability assay.

LS-123 = details: Homo sapiens, LS-123
Description: SANGER: Inhibition of human LS-123 cell growth in a cell viability assay.

LU-139 = details: Homo sapiens, LU-139
Description: SANGER: Inhibition of human LU-139 cell growth in a cell viability assay.

LXF-289 cell line = details: Homo sapiens, LXF-289
Description: SANGER: Inhibition of human LXF-289 cell growth in a cell viability assay.

MHH-NB-11 = details: Homo sapiens, MHH-NB-11
Description: SANGER: Inhibition of human MHH-NB-11 cell growth in a cell viability assay.

ML-2 = details: Homo sapiens, ML-2
Description: SANGER: Inhibition of human ML-2 cell growth in a cell viability assay.

MLMA = details: Homo sapiens, MLMA
Description: SANGER: Inhibition of human MLMA cell growth in a cell viability assay.

MZ7-mel = details: Homo sapiens, MZ7-mel
Description: SANGER: Inhibition of human MZ7-mel cell growth in a cell viability assay.

NB10 = details: Homo sapiens, NB10
Description: SANGER: Inhibition of human NB10 cell growth in a cell viability assay.

NB17 = details: Homo sapiens, NB17
Description: SANGER: Inhibition of human NB17 cell growth in a cell viability assay.

NCI-H1581 = details: Homo sapiens, NCI-H1581
Description: SANGER: Inhibition of human NCI-H1581 cell growth in a cell viability assay.

NCI-H1648 = details: Homo sapiens, NCI-H1648
Description: SANGER: Inhibition of human NCI-H1648 cell growth in a cell viability assay.

NCI-H1650 = details: Homo sapiens, NCI-H1650
Description: SANGER: Inhibition of human NCI-H1650 cell growth in a cell viability assay.

NCI-H23 = details: Homo sapiens, NCI-H23
Description: SANGER: Inhibition of human NCI-H23 cell growth in a cell viability assay.

NCI-H446 = details: Homo sapiens, NCI-H446
Description: SANGER: Inhibition of human NCI-H446 cell growth in a cell viability assay.

NCI-H69 = details: Homo sapiens, NCI-H69
Description: SANGER: Inhibition of human NCI-H69 cell growth in a cell viability assay.

NCI-H82 = details: Homo sapiens, NCI-H82
Description: SANGER: Inhibition of human NCI-H82 cell growth in a cell viability assay.

NMC-G1 = details: Homo sapiens, NMC-G1
Description: SANGER: Inhibition of human NMC-G1 cell growth in a cell viability assay.

OCI-AML2 = details: Homo sapiens, OCI-AML2
Description: SANGER: Inhibition of human OCI-AML2 cell growth in a cell viability assay.

OVCAR-4 = details: Homo sapiens, OVCAR-4
Description: SANGER: Inhibition of human OVCAR-4 cell growth in a cell viability assay.

SCC-15 = details: Homo sapiens, SCC-15
Description: SANGER: Inhibition of human SCC-15 cell growth in a cell viability assay.

SW 954 = details: Homo sapiens, SW 954
Description: SANGER: Inhibition of human SW954 cell growth in a cell viability assay.

TE-1 = details: Homo sapiens, TE-1
Description: SANGER: Inhibition of human TE-1 cell growth in a cell viability assay.

697 = details: Homo sapiens
Description: SANGER: Inhibition of human 697 cell growth in a cell viability assay.

A253 cell line = details: Homo sapiens, A253
Description: SANGER: Inhibition of human A253 cell growth in a cell viability assay.

BB30-HNC = details: Homo sapiens, BB30-HNC
Description: SANGER: Inhibition of human BB30-HNC cell growth in a cell viability assay.

BV-173 = details: Homo sapiens, BV-173
Description: SANGER: Inhibition of human BV-173 cell growth in a cell viability assay.

Becker = details: Homo sapiens, Becker
Description: SANGER: Inhibition of human Becker cell growth in a cell viability assay.

VA-ES-BJ = details: Homo sapiens, VA-ES-BJ
Description: SANGER: Inhibition of human VA-ES-BJ cell growth in a cell viability assay.

no-11 = details: Homo sapiens
Description: SANGER: Inhibition of human no-11 cell growth in a cell viability assay.

COLO-684 = details: Homo sapiens, COLO-684
Description: SANGER: Inhibition of human COLO-684 cell growth in a cell viability assay.

A704 = details: Homo sapiens, A704
Description: SANGER: Inhibition of human A704 cell growth in a cell viability assay.

## C#Cc1cccc(Nc2ncnc3cc(OCCOC)c(OCCOC)cc23)c1 [ERLOTINIB]
Calu-6
  IC50: > 2 µM
D-263MG
  IC50: > 2 µM
ES3
  IC50: > 2 µM
ES5
  IC50: > 2 µM
ES8
  IC50: > 2 µM
EW-1
  IC50: > 2 µM
HCE-T
  IC50: > 2 µM
HD-MY-Z
  IC50: > 2 µM
HH
  IC50: > 2 µM
JVM-2
  IC50: > 2 µM
KARPAS-299
  IC50: > 2 µM
KMOE-2
  IC50: > 2 µM
KNS-81-FD
  IC50: > 2 µM
KP-N-YS
  IC50: > 2 µM
KURAMOCHI
  IC50: > 2 µM
LAMA-84
  IC50: > 2 µM
LB2518-MEL
  IC50: > 2 µM
LS-1034
  IC50: > 2 µM
LS-123
  IC50: > 2 µM
LU-139
  IC50: > 2 µM
LXF-289 cell line
  IC50: > 2 µM
MHH-NB-11
  IC50: > 2 µM
ML-2
  IC50: > 2 µM
MLMA
  IC50: > 2 µM
MZ7-mel
  IC50: > 2 µM
NB10
  IC50: > 2 µM
NB17
  IC50: > 2 µM
NCI-H1581
  IC50: > 2 µM
NCI-H1648
  IC50: 0.04 µM
NCI-H1650
  IC50: > 2 µM
NCI-H23
  IC50: > 2 µM
NCI-H446
  IC50: > 2 µM
NCI-H69
  IC50: > 2 µM
NCI-H82
  IC50: > 2 µM
NMC-G1
  IC50: > 2 µM
OCI-AML2
  IC50: > 2 µM
OVCAR-4
  IC50: > 2 µM
SCC-15
  IC50: > 2 µM
SW 954
  IC50: > 2 µM
TE-1
  IC50: 1.4 µM
697
  IC50: > 2 µM
A253 cell line
  IC50: > 2 µM
BB30-HNC
  IC50: 0.148 µM
BV-173
  IC50: > 2 µM
Becker
  IC50: > 2 µM
VA-ES-BJ
  IC50: > 2 µM
no-11
  IC50: > 2 µM
COLO-684
  IC50: > 2 µM

## COc1cc2ncn(-c3cc(OCc4ccccc4S(C)(=O)=O)c(C#N)s3)c2cc1OC [GSK-319347A]
Calu-6
  IC50: > 5 µM
D-263MG
  IC50: > 5 µM
ES3
  IC50: > 5 µM
ES5
  IC50: > 5 µM
ES8
  IC50: > 5 µM
EW-1
  IC50: > 5 µM
HCE-T
  IC50: > 5 µM
HD-MY-Z
  IC50: > 5 µM
HH
  IC50: > 5 µM
JVM-2
  IC50: > 5 µM
KARPAS-299
  IC50: > 5 µM
KMOE-2
  IC50: > 5 µM
KNS-81-FD
  IC50: > 5 µM
KP-N-YS
  IC50: > 5 µM
KURAMOCHI
  IC50: > 5 µM
LAMA-84
  IC50: > 5 µM
LB2518-MEL
  IC50: > 5 µM
LS-1034
  IC50: > 5 µM
LS-123
  IC50: > 5 µM
LU-139
  IC50: > 5 µM
LXF-289 cell line
  IC50: > 5 µM
MHH-NB-11
  IC50: > 5 µM
ML-2
  IC50: > 5 µM
MLMA
  IC50: > 5 µM
MZ7-mel
  IC50: > 5 µM
NB10
  IC50: > 5 µM
NB17
  IC50: > 5 µM
NCI-H1581
  IC50: > 5 µM
NCI-H1648
  IC50: > 5 µM
NCI-H1650
  IC50: > 5 µM
NCI-H23
  IC50: > 5 µM
NCI-H446
  IC50: > 5 µM
NCI-H69
  IC50: > 5 µM
NCI-H82
  IC50: > 5 µM
NMC-G1
  IC50: > 5 µM
OCI-AML2
  IC50: > 5 µM
OVCAR-4
  IC50: > 5 µM
SCC-15
  IC50: > 5 µM
SW 954
  IC50: > 5 µM
TE-1
  IC50: > 5 µM
697
  IC50: > 5 µM
A253 cell line
  IC50: > 5 µM
BB30-HNC
  IC50: > 5 µM
BV-173
  IC50: > 5 µM
Becker
  IC50: > 5 µM
VA-ES-BJ
  IC50: > 5 µM
no-11
  IC50: > 5 µM
COLO-684
  IC50: > 5 µM

## CCN(CC)CCNC(=O)c1c(C)[nH]c(/C=C2\C(=O)Nc3ccc(F)cc32)c1C [SUNITINIB]
Calu-6
  IC50: > 8 µM
D-263MG
  IC50: > 8 µM
ES3
  IC50: > 8 µM
ES5
  IC50: > 8 µM
ES8
  IC50: > 8 µM
EW-1
  IC50: 4.68 µM
HCE-T
  IC50: > 8 µM
HD-MY-Z
  IC50: 5.17 µM
HH
  IC50: 4.21 µM
JVM-2
  IC50: > 8 µM
KARPAS-299
  IC50: 2.11 µM
KMOE-2
  IC50: > 8 µM
KNS-81-FD
  IC50: > 8 µM
KP-N-YS
  IC50: > 8 µM
KURAMOCHI
  IC50: > 8 µM
LAMA-84
  IC50: 2.7 µM
LB2518-MEL
  IC50: > 8 µM
LS-1034
  IC50: > 8 µM
LS-123
  IC50: > 8 µM
LU-139
  IC50: > 8 µM
LXF-289 cell line
  IC50: 2.73 µM
MHH-NB-11
  IC50: > 8 µM
ML-2
  IC50: 2.64 µM
MLMA
  IC50: > 8 µM
MZ7-mel
  IC50: > 8 µM
NB10
  IC50: > 8 µM
NB17
  IC50: > 8 µM
NCI-H1581
  IC50: > 8 µM
NCI-H1648
  IC50: > 8 µM
NCI-H1650
  IC50: > 8 µM
NCI-H23
  IC50: > 8 µM
NCI-H446
  IC50: > 8 µM
NCI-H69
  IC50: > 8 µM
NCI-H82
  IC50: 7.38 µM
NMC-G1
  IC50: > 8 µM
OCI-AML2
  IC50: 1.37 µM
OVCAR-4
  IC50: > 8 µM
SCC-15
  IC50: > 8 µM
SW 954
  IC50: 6.28 µM
TE-1
  IC50: > 8 µM
697
  IC50: 0.614 µM
A253 cell line
  IC50: > 8 µM
A704
  IC50: > 8 µM
BV-173
  IC50: 2.34 µM
Becker
  IC50: > 8 µM
VA-ES-BJ
  IC50: > 8 µM
no-11
  IC50: 7.78 µM
COLO-684
  IC50: > 8 µM
